Literature values in patent publication US20130338178A1, “SIRTUIN MODULATORS AS INHIBITORS OF CYTOMEGALOVIRUS” (THE TRUSTEES OF PRINCETON UNIVERSITY, priority 2011, published 2013).

What was measured:
[1] = target: T1, SIRT1 (Homo sapiens, UniProt Q96EB6); conditions: SIRT1 preincubated with NAD+ and compound, means ± SD, cited from earlier work
T1 sequence (Q96EB6 1-747): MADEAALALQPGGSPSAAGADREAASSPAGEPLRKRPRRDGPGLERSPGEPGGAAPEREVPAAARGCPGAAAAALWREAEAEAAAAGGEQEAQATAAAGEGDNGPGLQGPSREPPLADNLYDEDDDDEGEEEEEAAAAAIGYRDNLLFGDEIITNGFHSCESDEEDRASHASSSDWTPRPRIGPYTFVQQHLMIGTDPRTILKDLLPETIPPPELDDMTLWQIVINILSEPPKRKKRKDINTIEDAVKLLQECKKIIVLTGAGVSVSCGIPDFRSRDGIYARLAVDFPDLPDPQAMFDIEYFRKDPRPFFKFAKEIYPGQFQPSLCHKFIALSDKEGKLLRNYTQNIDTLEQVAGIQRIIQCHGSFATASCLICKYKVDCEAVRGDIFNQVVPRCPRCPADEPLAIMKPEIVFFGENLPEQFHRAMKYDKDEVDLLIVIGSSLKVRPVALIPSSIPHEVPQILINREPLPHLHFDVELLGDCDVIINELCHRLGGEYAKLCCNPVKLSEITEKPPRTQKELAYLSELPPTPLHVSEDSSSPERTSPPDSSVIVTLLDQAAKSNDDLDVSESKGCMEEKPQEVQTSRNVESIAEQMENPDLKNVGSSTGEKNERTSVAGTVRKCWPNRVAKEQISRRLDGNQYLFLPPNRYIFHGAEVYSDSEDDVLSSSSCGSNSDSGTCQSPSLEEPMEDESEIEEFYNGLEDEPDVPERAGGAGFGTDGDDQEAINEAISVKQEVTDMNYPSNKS

[2] = system: sirtuin; conditions: cited from earlier work; for % Activity at 50 μM / % Activity at 500 μM: residual enzyme activity relative to control with no inhibitor; for IC50: analogs of compound 12
[3] = target: T2, SIRT2 (Homo sapiens, UniProt Q8IXJ6); conditions: cited from earlier work
T2 sequence (Q8IXJ6 1-389): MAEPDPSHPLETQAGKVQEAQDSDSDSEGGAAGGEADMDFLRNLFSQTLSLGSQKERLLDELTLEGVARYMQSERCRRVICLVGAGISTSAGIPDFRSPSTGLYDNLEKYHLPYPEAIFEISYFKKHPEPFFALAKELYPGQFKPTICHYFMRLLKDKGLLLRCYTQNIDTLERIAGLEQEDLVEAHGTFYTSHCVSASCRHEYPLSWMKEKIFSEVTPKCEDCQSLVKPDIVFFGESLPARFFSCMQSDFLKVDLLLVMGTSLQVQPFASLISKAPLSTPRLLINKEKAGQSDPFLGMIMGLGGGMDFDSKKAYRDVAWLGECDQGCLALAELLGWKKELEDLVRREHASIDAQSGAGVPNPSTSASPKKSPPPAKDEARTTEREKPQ

Structure (SMILES) | inhibition at 300 μM (%) [1] | IC50 [1] | other results
CC(=O)CC(=O)NCCCC[C@H](NC(=O)OCc1ccccc1)C(=O)Nc1ccccc1 [2v] | 45 ± 6.0% | > 300 µM | 
Cc1cccc(OCC(=O)Oc2ccc3c(C)cc(=O)oc3c2)c1 [compound 5140108] |  |  | % Activity at 50 μM [2]: 90%; % Activity at 500 μM [2]: 13%
COc1cc2c(cc1O)CN(C)CC2 [7-133] |  |  | % Activity at 50 μM [2]: 100%; % Activity at 500 μM [2]: 98%
CN(C)C(=O)CC(=O)NCCCC[C@H](NC(=O)OCc1ccccc1)C(=O)Nc1ccccc1 [2u] | 20 ± 1.3% | > 300 µM | 
CSCC(=O)NCCCC[C@H](NC(=O)OCc1ccccc1)C(=O)Nc1ccccc1 [2c] | 32 ± 20% | > 300 µM | 
CCc1ccc(OCCCC(=O)Oc2ccc3c(C)cc(=O)oc3c2)cc1 [compound 6802623] |  |  | % Activity at 50 μM [2]: 86%; % Activity at 500 μM [2]: 53%
C[S+]([O-])CCC(C(=O)O)N1C(=O)c2ccccc2C1=O (stereo not drawn) [compound 00032] |  |  | IC50 [2]: No inhibition
O=C(Cc1ccccc1[N+](=O)[O-])NCCCC[C@H](NC(=O)OCc1ccccc1)C(=O)Nc1ccccc1 [2h] | 40 ± 12% | > 300 µM | 
O=C(O)CCCN1C(=O)c2ccccc2C1=O [compound 47032] |  |  | IC50 [2]: No inhibition
O=C(O)CCN1C(=O)c2cc(Cl)c(Cl)cc2C1=O [compound 39008] |  |  | IC50 [2]: No inhibition
C#CC1c2cc(O)c(OC)cc2CCN1C (stereo not drawn) [7-52] |  |  | % Activity at 50 μM [2]: 100%; % Activity at 500 μM [2]: 86%
CS(=O)(=O)CC(=O)NCCCC[C@H](NC(=O)OCc1ccccc1)C(=O)Nc1ccccc1 [2e] | 56 ± 1.9% |  | 
CC(C)C(=O)CCN1C(=O)c2ccccc2C1=O [compound 04265] |  |  | IC50 [2]: No inhibition
Cc1cc(Cc2cc(C)c(O)c(C)c2)cc(C)c1O [compound 97252] |  |  | % Activity at 50 μM [2]: 89%; % Activity at 500 μM [2]: 43%
[H]/N=C(\c1ccccc1Cc1cccc2ccccc12)c1ccc(C)c2ccccc12 [CSC24] |  |  | Sirt2 effect [3]: inhibition
C(=C1c2ccccc2-c2ccccc21)c1ccc(N=C2c3ccccc3-c3ccccc32)cc1 [CSC2] |  |  | Sirt2 effect [3]: inhibition
CC12Cc3cnc(-c4ccccc4)nc3CC1CCC1C2CCC2(C)C1CCC2(C)O (stereo not drawn) [CSC13] |  |  | Sirt2 effect [3]: inhibition
CCOC(=O)CC(=O)NCCCC[C@H](NC(=O)OCc1ccccc1)C(=O)Nc1ccccc1 [2k] | 91 ± 1.3% | 3.9 ± 0.29 µM | 
O=C(CC(=O)OCC(F)(F)F)NCCCC[C@H](NC(=O)OCc1ccccc1)C(=O)Nc1ccccc1 [2q] | 94 ± 1.5% | 15 ± 3.1 µM | 

Structure (SMILES) | inhibition at 300 μM (%) [1] | IC50 [1] | other results
C=C(C(C)c1ccc2c(c1)Cc1ccccc1-2)C(C)c1ccc2c(c1)Cc1ccccc1-2 (stereo not drawn) [CSC7] |  |  | Sirt2 effect [3]: inhibition
COCC#CC1c2cc(O)c(OC)cc2CCN1Cc1ccc(OC)cc1 (stereo not drawn) [Compound 14b] |  |  | % Activity at 50 μM [2]: 92%; % Activity at 500 μM [2]: 2%
O=C(CC(=O)c1ccccc1)NCCCC[C@H](NC(=O)OCc1ccccc1)C(=O)Nc1ccccc1 [2z] | 37 ± 7.4% | > 300 µM | 
Cc1ccc(OCCCC(=O)Oc2ccc3c(C)cc(=O)oc3c2)cc1 [compound 6836332] |  |  | % Activity at 50 μM [2]: 99%; % Activity at 500 μM [2]: 57%
O=C(Cc1ccc([N+](=O)[O-])cc1)NCCCC[C@H](NC(=O)OCc1ccccc1)C(=O)Nc1ccccc1 [2i] | 51 ± 17% |  | 
O=C(Cc1ccccc1C(F)(F)F)NCCCC[C@H](NC(=O)OCc1ccccc1)C(=O)Nc1ccccc1 [2f] | 49 ± 13% | > 300 µM | 
NC(=O)CC(=O)NCCCC[C@H](NC(=O)OCc1ccccc1)C(=O)Nc1ccccc1 [2s] | 25 ± 2.3% | > 300 µM | 
COC/C=C\C1c2cc(O)c(OC)cc2CCN1C (stereo not drawn) [7-129] |  |  | % Activity at 50 μM [2]: 97%; % Activity at 500 μM [2]: 94%
O=C(CC(=O)OCC1CC1)NCCCC[C@H](NC(=O)OCc1ccccc1)C(=O)Nc1ccccc1 [2p] | 93 ± 1.2% | 14 ± 2.6 µM | 
CC(C)(C)OC(=O)CC(=O)NCCCC[C@H](NC(=O)OCc1ccccc1)C(=O)Nc1ccccc1 [2o] | 6.0 ± 0.64% | > 300 µM | 
O=C(CC(=O)OCc1ccccc1)NCCCC[C@H](NC(=O)OCc1ccccc1)C(=O)Nc1ccccc1 [2r] | 71 ± 4.3% | 96 ± 4.8 µM | 
CC(C)OC(=O)CC(=O)NCCCC[C@H](NC(=O)OCc1ccccc1)C(=O)Nc1ccccc1 [2m] | 72 ± 5.1% | 47 ± 5.3 µM | 
[H]/N=C(\c1ccc2ccccc2c1)c1ccccc1Cc1ccccc1 [CSC22] |  |  | Sirt2 effect [3]: inhibition
CCCC(=O)CC(=O)NCCCC[C@H](NC(=O)OCc1ccccc1)C(=O)Nc1ccccc1 [2x] | 78 ± 5.2% |  | 
Nc1ccc2c(c1)C(=O)N(CCC(=O)O)C2 [compound 42071] |  |  | IC50 [2]: No inhibition
COc1ccc2c(c1)Cc1cc(/N=[N+](\[O-])c3ccc4c(c3)Cc3cc(OC)ccc3-4)ccc1-2 [CSC32] |  |  | Sirt2 effect [3]: inhibition
Cc1ccc2c(c1)CCC1C2CCC2(C)C(OC(=O)CCc3ccccc3)CCC12 (stereo not drawn) [CSC8] |  |  | Sirt2 effect [3]: inhibition
O=C(CC(F)(F)F)NCCCC[C@H](NC(=O)OCc1ccccc1)C(=O)Nc1ccccc1 [2b] | 44 ± 17% | > 300 µM | 
Oc1ccc(Cc2ccccc2)cc1 [compound 72030] |  |  | % Activity at 50 μM [2]: 100%; % Activity at 500 μM [2]: 88%

Structure (SMILES) | inhibition at 300 μM (%) [1] | IC50 [1] | other results
O=C(O)CCN1C(=O)c2ccc(-c3nc4ccccc4c(=O)o3)cc2C1=O [compound 47054] |  |  | IC50 [2]: No inhibition
Cc1cc(=O)oc2cc(OC(=O)COc3ccccc3)ccc12 [compound 5237467] |  |  | % Activity at 50 μM [2]: 91%; % Activity at 500 μM [2]: 45%
Cc1ccc(OCCCC(=O)Oc2ccc3c(C)cc(=O)oc3c2)c(C)c1 [compound 7988362] |  |  | % Activity at 50 μM [2]: 90%; % Activity at 500 μM [2]: 51%
O=C(Cc1ccc(C(F)(F)F)cc1)NCCCC[C@H](NC(=O)OCc1ccccc1)C(=O)Nc1ccccc1 [2g] | 41 ± 20% | > 300 µM | 
O=C1c2ccccc2C(=O)N1CCBr [compound 91032] |  |  | IC50 [2]: No inhibition
Nc1cccc(Cc2cccc(N)c2)c1 [compound 56413] |  |  | % Activity at 50 μM [2]: 100%; % Activity at 500 μM [2]: 100%
OC(c1ccccc1)c1ccc(C(F)(F)F)cc1 (stereo not drawn) [compound 97211] |  |  | % Activity at 50 μM [2]: 100%; % Activity at 500 μM [2]: 81%
CCC(=O)CC(=O)NCCCC[C@H](NC(=O)OCc1ccccc1)C(=O)Nc1ccccc1 [2w] | 67 ± 1.2% | 88 ± 3.9 µM | 
COC(=O)CC(=O)NCCCC[C@H](NC(=O)OCc1ccccc1)C(=O)Nc1ccccc1 [2j] | 92 ± 1.2% | 35 ± 5.2 µM | 
C[S+]([O-])CC(=O)NCCCC[C@H](NC(=O)OCc1ccccc1)C(=O)Nc1ccccc1 (stereo partly drawn) [2d] | 46 ± 3.0% | > 300 µM | 
CCCCOC(=O)CC(=O)NCCCC[C@H](NC(=O)OCc1ccccc1)C(=O)Nc1ccccc1 [2n] | 64 ± 6.1% | 73 ± 3.2 µM | 
CNC(=O)CC(=O)NCCCC[C@H](NC(=O)OCc1ccccc1)C(=O)Nc1ccccc1 [2t] | 24 ± 2.5% | > 300 µM | 
O=C(CC(=O)C(F)(F)F)NCCCC[C@H](NC(=O)OCc1ccccc1)C(=O)Nc1ccccc1 [2y] | 7.9 ± 0.92% | > 300 µM | 
Cc1cc(=O)oc2cc(OC(=O)CCCOc3ccc(Cl)cc3Cl)ccc12 [compound 5366302] |  |  | % Activity at 50 μM [2]: 90%; % Activity at 500 μM [2]: 68%
COc1ccc(OCCCC(=O)Oc2ccc3c(C)cc(=O)oc3c2)cc1 [compound 6959933] |  |  | % Activity at 50 μM [2]: 93%; % Activity at 500 μM [2]: 35%
COCC#CC1(C)c2cc(O)c(OC)cc2CCN1C (stereo not drawn) [7-123] |  |  | % Activity at 50 μM [2]: 100%; % Activity at 500 μM [2]: 100%
N#CCC(=O)NCCCC[C@H](NC(=O)OCc1ccccc1)C(=O)Nc1ccccc1 [2a] | 50 ± 7.9% |  | 
COCCCC1c2cc(O)c(OC)cc2CCN1C (stereo not drawn) [7-128] |  |  | % Activity at 50 μM [2]: 99%; % Activity at 500 μM [2]: 92%
CCCOC(=O)CC(=O)NCCCC[C@H](NC(=O)OCc1ccccc1)C(=O)Nc1ccccc1 [2l] | 71 ± 0.72% | 62 ± 3.7 µM | 
